Assay results from patent publication US4213895A, “N-[N-[N-[ N-[N-(5-Oxo-L-prolyl)-L-histidyl]-L-tryptophyl]-L-seryl]-L-tyrosyl]glycin e azide, an intermediate of the releasing agent of luteinizing hormone (LW) and of follicle stimulating hormone (FSH)” (American Home Products Corporation, priority 1979, dated 1980).

Assays:
[1] = tested on: induction of ovulation in the rat; test: Induction of ovulation in the rat, modification of the assay of Arimura et al., Endocrinology 80, 515; type: in vivo; conditions: acid addition salt
Source text: (§1) Exp. Biol. Med., 128, 807 (1968).

[2] = tested on: LH- and FSH-releasing; test: LH- and FSH-releasing activity, radioimmunoassay described by Niswender et al.; conditions: acid addition salt
Source text: as §1

[3] = tested on: LH- and FSH-releasing; test: Bioassays, not specified, comparison with the natural hormone; conditions: diacetate salt
Source text: Said last-named compound (VI) is condensed by means of the azide method via the azide, N-[N-[N-[N-[N-(5-oxo-L-prolyl)-L-histidyl]-L-tryptophyl]-L-seryl]-L-tyrosyl]glycine azide, with N-[N-[N-(N-leucyl)-L-arginyl]-L-prolyl]glycinamide diacetate (V) to yield the desired decapeptide 5-oxo-L-prolyl-L-histidyl-L-tryptophyl-L-seryl-L-tyrosylglycyl-L-leucyl-L- arginyl-L-prolylglycinamide (I) which is isolated in the form of its diacetate salt. The latter salt may be converted, if desired, into a different acid addition salt, e.g. a salt with a pharmaceutically acceptable acid, by treatment with the appropriate ion exchange resin in the manner described by Boissonas et al., Helv. Chim. Acta 43, 1349 (1960). Suitable ion exchange resins are strongly basic anion exchange resins, for example those listed in Greenstein and Winitz "Chemistry of the Amino Acids", Hohn Wiley and Sons, Inc., New York and London 1961, Vol. 2, p. 1456. Basically substituted cross-linked polystyrene resins such as Amerlite IRA-400 or IRA-410 are preferred. The above diacetate may also be converted to a salt of low solubility in body fluids by treatment with a slightly water-soluble pharmaceutically acceptable acid. The acid addition salts of the LH- and FSH-releasing hormone produced by the process of this invention with pharmacologically acceptable acids are biologically fully equivalent to the natural hormone. […]

[4] = tested on: induction of ovulation in the hamster; test: Induction of ovulation in the hamster (Arimura et al., Science 174, 511); type: in vivo; conditions: acid addition salt
Source text: as §1

CC(C)C[C@H](NC(=O)CNC(=O)[C@H](Cc1ccc(O)cc1)NC(=O)[C@H](CO)NC(=O)[C@H](Cc1c[nH]c2ccccc12)NC(=O)[C@H](Cc1c[nH]cn1)NC(=O)[C@@H]1CCC(=O)N1)C(=O)N[C@@H](CCCNC(=N)N)C(=O)N1CCC[C@H]1C(=O)NCC(N)=O [I, 5-oxo-L-prolyl-L-histidyl-L-tryptophyl-L-seryl-L-tyrosylglycyl-L-leucyl-L-arginyl-L-prolylglycinamide]
activity in induction of ovulation relative to the natural hormone [1]: equally active
LH- and FSH-releasing activity relative to the natural hormone [2]: as active as the natural hormone
potency in bioassays relative to the natural product [3]: as potent as the latter
activity in induction of ovulation relative to the natural hormone [4]: equally active
